What was measured:
[1] = Epimerization of BocCys{Lu} diastereomers followed by 1H NMR; type: physicochemical; conditions: Supp. Fig. 22B, chirality inversion
Description: The ClickZip chelates are inherently chiral, with defined rotation of the pendant arms (Λ or Δ) and of the four ethylene units in the cyclen ring (λλλλ or δδδδ), analogous to the DOTA system[15],[27],[34]. However, in contrast to DOTA, they only adopt enantiomeric Λλλλλ and Δδδδδ forms with twisted-square antiprismatic (TSA) arrangements (Fig. 4). To probe whether these enantiomers can interconvert, we modified {Lu} with L-cysteine residues to produce a pair of distinguishable diastereomers. […] The enantiomers of {M} can thus be regarded either as one or two compounds, depending on the time scale.
Fig. 4 Chirality of ClickZip chelates. Inherent chirality of the molecules is given by rotation of the pendant arms (Λ or Δ) and of the four ethylene units in the cyclen ring (λλλλ or δδδδ). In theory, four isomers are possible: two twisted square antiprismatic (TSA) enantiomers (Λλλλλ and Δδδδδ), and two square antiprismatic (SA) enantiomers (Δλλλλ and Λδδδδ). The ClickZip chelates exclusively adopt the TSA arrangements Λλλλλ and Δδδδδ, which were observed together in all solid-state structures as well as in solution. These two forms interconvert on the time scale of hours at 37 °C (Supplementary Fig. 22). Both enantiomers shown here were found in the crystal structure of [{Lu}]^+[ClO4]^−·5H2O. Thermal ellipsoids were set at 50% probability.
Supplementary Fig. 97. Synthesis of BocCys {Lu} and its epimer separation. In a glass vial (4 mL), [Cl{Lu}] +[T FA ]−·5.1H2O (4.0 mg; 4.2 µmol; 1.0 equiv.) was dissolved in DMSO (160 µL) followed by addition of N-Boc-cysteine (200 mM in DMSO; 31 µL; 6.2 µmol; 1.5 equiv.) and DIPEA (7.3 µL; 42 µmol; 10 equiv.) and the resulting solution was stirred for 16 h at 40 °C. Mixture (containing racemic mixture of BocCys {Lu} epimers) was then diluted with DMSO (0.5 mL) and filtered through syringe microfilter (RC). Filtrate was then directly purified by preparative HPLC […]
Fractions with epimer A (front part of the first eluting peak) and B (latter part of the second eluting peak) were quickly freezed and directly lyophilized. The resulting solids were dissolved in 500 μL of deuterated 50 mM MOPS/NaOD buffer (formal pH 7.4; obtained from MOPS/NaOH buffer of such pH by multiple evaporation/D2O resupply cycles). Epimer A (obtained in slightly higher epimeric purity than epimer B) was used for continuous 1H NMR epimerization study at 37 °C (Supplementary Fig. 22) while epimer B was incubated concurrently under identical conditions on heated magnetic stirrer. Conversion: ≥95% (based on Cl {Lu}).

[2] = Hydrolysis of ClickZip conjugates with model hexapeptide in HCl; type: physicochemical; conditions: 0.5 mM conjugate in 2 M HCl at 80 °C; HPLC 285 nm; Y value after 4 d
Experimental: While the acid-assisted dechelation of lanthanide DOTA chelates proceeds with a rate similar to hydrolysis of a peptide bond[24], the ultra-inert ClickZip chelates of Lu^III and near lanthanides should outlast complete hydrolysis of peptides and proteins. To test this, we prepared model hexapeptide conjugates with two ClickZip derivatives, HO2CPh{Ln} or HO2CBn{Ln}, which differed in their amide linkage to the peptide N-end (Fig. 6). Hydrolysis in 2 M HCl at 80 °C digested the peptide to individual amino acids; the chelates were cleaved from the peptide with no loss of the metal (Lu^III or Tm^III), or only small loss (5% for Y^III chelate).
Fig. 6 ClickZip and peptide bond stability comparison. Hydrolysis of ClickZip conjugates with model hexapeptide AYFHVG-NH2 connected by either aromatic or aliphatic amide bonds in strong acid. Conditions: 0.5 mM {Ln}PhCO-AYFHVG-NH2 or {Ln}BnCO-AYFHVG-NH2 in 2 M HCl at 80 °C. Analysis: λ = 285 nm (HPLC, H2O–MeCN, formic acid additive). […] The hydrolysis is faster for {Ln}BnCO-AYFHVG-NH2 species connected to the peptide via aliphatic amide moiety (n = 1) where HO2CBn{Ln} is formed quantitatively after 1 d. […] Nevertheless, prolonged reaction time led to quantitative formation of HO2CPh{Ln}. […]

O=C(CN1CC2CC(=O)Nc3cccc1c32)Nc1ccc2c(c1)C[C@]1(C2)C(=O)Nc2ncccc21 (single isomer, unassigned) [epimer A]
abundance, % of epimer ([1]; 0.757 h): 89.6% | abundance, % of epimer ([1]; 0.913 h): 83.6% | abundance, % of epimer ([1]; 1.220 h): 84.0% | abundance, % of epimer ([1]; 1.376 h): 90.7% | abundance, % of epimer ([1]; 1.532 h): 83.1% | abundance, % of epimer ([1]; 1.735 h): 83.8% | abundance, % of epimer ([1]; 1.891 h): 74.9% | abundance, % of epimer ([1]; 2.467 h): 74.2% | abundance, % of epimer ([1]; 2.641 h): 78.5% | abundance, % of epimer ([1]; 2.985 h): 70.9% | abundance, % of epimer ([1]; 3.611 h): 62.0% | abundance, % of epimer ([1]; 4.238 h): 64.6% | abundance, % of epimer ([1]; 4.864 h): 63.0% | abundance, % of epimer ([1]; 5.489 h): 63.7% | abundance, % of epimer ([1]; 6.704 h): 52.8% | abundance, % of epimer ([1]; 7.918 h): 58.7% | abundance, % of epimer ([1]; 9.132 h): 55.2% | abundance, % of epimer ([1]; 10.346 h): 50.5% | abundance, % of epimer ([1]; 11.560 h): 49.5% | abundance, % of epimer ([1]; 12.775 h): 50.6% | abundance, % of epimer ([1]; 13.988 h): 49.2% | abundance, % of epimer ([1]; 17.779 h): 50.3%

{Y}PhCO-AYFHVG-NH2 [model hexapeptide conjugate with {Y} tag, aromatic amide]
loss (leak) of metal ion during hydrolysis of hexapeptide conjugate [2]: ~ 5%
